Results on 17 molecules are retold here after ChEMBL document CHEMBL3880382, “TRH-like peptide derivatives as inhibitors of the TRH-degrading ectoenzyme” (2010).

In assay [1] the target is Thyrotropin releasing hormone degrading enzyme (Sus scrofa, UniProt A0A287AP33). The assay is described as follows: Inhibition of pig brain TRH-DE using Glp-His-ProAMC as substrate by DPP-4-based continuous fluorometric method.
Assay [2] has as its target T1, Thyrotropin releasing hormone degrading enzyme (Sus scrofa) (UniProt A0A287AP33). The assay is described as follows: Substrate activity at pig brain TRH-DE assessed as retention time at 1 mM incubated for 18 hrs by HPLC analysis.
Assay [3] has as its target T1, Thyrotropin releasing hormone degrading enzyme (Sus scrofa). Briefly: Substrate activity at pig brain TRH-DE assessed as Vmax to Km ratio.
Assay [4] has the same target. Briefly: Substrate activity at pig brain TRH-DE assessed as rate of hydrolysis at 1 mM incubated for 18 hrs by HPLC analysis.
Assay [5] has the same target. Briefly: Inhibition of pig brain TRH-DE at 1 mM using Glp-His-ProAMC as substrate by DPP-4-based continuous fluorometric method.
Assay [6] relates to Rattus norvegicus. Briefly: In vivo inhibition of TRH-DE in cannulated Wistar rat assessed as TRH-mediated increase in locomotion at 10 mg/kg, ip measured every 5 mins for 30 secs during 40 mins of observation period. The assay is classed as functional, organism-based.
For assay [7], the target named is T2, Thyrotropin-releasing hormone receptor (Rattus norvegicus, UniProt Q01717).
T2 sequence (Q01717 whole entry): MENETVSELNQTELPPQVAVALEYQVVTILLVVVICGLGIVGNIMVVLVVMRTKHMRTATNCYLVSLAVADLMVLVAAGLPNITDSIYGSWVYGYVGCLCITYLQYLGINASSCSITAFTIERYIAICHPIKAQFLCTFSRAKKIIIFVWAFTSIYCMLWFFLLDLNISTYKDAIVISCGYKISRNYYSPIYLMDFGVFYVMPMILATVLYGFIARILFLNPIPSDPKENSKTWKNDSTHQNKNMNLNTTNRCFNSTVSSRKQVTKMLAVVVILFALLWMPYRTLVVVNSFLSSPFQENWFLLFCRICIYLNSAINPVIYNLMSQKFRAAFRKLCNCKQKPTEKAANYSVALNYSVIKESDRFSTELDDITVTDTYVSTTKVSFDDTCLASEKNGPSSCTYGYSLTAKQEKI
The assay is described as follows: Displacement of [3H]-3MeHis-TRH from TRH receptor in Sprague-Dawley rat cortical membranes.

In assay [8] the target is T1, Thyrotropin releasing hormone degrading enzyme (Sus scrofa). Briefly: Reversible inhibition of pig brain TRH-DE using Glp-His-ProAMC as substrate at 160 uM preincubated for 75 mins by DPP-4-based continuous fluorometric method.
The target is the same in assay [9]. The assay is described as follows: Competitive inhibition of pig brain TRH-DE at 12.5 to 50 uM using Glp-His-ProAMC as substrate by Lineweaver-Burk analysis.
The subject of assay [10] is Rattus norvegicus. Briefly: In vivo inhibition of TRH-DE in cannulated Wistar rat assessed as increase in TRH-mediated locomotion at 5 ug in 1 ul, icv after 30 mins. The assay is classed as functional, organism-based.
Assay [11] deals with T1, Thyrotropin releasing hormone degrading enzyme (Sus scrofa). The assay is described as follows: Reversible inhibition of pig brain TRH-DE using Glp-His-ProAMC as substrate at 400 uM preincubated for 75 mins by DPP-4-based continuous fluorometric method.

pKi: −log10 of the molar value. Active and inactive are the calls of the source. No cut-off for these calls is given here. Non-standard residues stand in square brackets, D forms with d. Residues, ends and D or L forms follow the SMILES beside them. *: point of attachment. pGlu = O=C1CC[C@@H](C(=O)O)N1; NHBn = c1ccc(CN*)cc1

T1 sequence (A0A287AP33 as listed by the source): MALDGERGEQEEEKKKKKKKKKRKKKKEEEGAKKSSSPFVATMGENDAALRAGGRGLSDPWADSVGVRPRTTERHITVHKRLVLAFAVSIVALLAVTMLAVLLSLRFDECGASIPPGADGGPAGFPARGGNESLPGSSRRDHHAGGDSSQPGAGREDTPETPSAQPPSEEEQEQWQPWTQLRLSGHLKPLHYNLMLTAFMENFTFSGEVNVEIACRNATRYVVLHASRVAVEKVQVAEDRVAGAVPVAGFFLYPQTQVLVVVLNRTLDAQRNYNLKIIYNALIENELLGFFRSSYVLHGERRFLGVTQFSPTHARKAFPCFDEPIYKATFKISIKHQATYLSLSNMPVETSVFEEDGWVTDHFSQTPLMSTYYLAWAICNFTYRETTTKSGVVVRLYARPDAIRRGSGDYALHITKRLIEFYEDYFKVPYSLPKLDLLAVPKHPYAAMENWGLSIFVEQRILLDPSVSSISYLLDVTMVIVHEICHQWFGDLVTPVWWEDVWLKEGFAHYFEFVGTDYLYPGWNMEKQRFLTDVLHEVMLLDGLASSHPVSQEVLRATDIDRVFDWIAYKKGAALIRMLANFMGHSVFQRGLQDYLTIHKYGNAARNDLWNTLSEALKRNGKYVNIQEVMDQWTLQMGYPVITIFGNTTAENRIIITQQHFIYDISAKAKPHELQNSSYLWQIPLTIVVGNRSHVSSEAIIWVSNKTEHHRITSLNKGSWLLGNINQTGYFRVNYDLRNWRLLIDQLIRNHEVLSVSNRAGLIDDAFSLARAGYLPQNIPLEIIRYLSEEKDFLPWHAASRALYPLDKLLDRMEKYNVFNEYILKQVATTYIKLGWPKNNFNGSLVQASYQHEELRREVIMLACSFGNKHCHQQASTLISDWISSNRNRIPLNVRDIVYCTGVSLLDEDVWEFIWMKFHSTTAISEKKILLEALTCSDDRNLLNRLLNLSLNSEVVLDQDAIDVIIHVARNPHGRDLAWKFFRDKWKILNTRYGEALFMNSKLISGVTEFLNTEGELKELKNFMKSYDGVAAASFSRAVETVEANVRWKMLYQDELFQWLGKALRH
Chain of Thyrotropin releasing hormone degrading enzyme (A0A287AP33 whole entry): as the sequence (A0A287AP33 as listed by the source) above

The pKi is the Ki on a negative log10 scale, so that one unit is a factor of ten. Higher therefore signals a small Ki. With `NC(=O)C[C@H](NC(=O)[C@@H]1CCC(=O)N1)C(=O)N1CCC[C@H]1C(=O)NC(=O)C1CCCc2ccccc21` (some centres not stated), in assay [1], the pKi is 4.65. For the same molecule, in [2], the Retention time is 18.4 min.

`NC(=O)C[C@H](NC(=O)[C@@H]1CCC(=O)N1)C(=O)N1CCC[C@H]1C(=O)Nc1ccccc1CO`: the pKi in [1] is 4.69. Moreover, the Retention time in [2] is 11.9 min.

With `COc1ccc(NC(=O)[C@@H]2CCCN2C(=O)[C@H](CC(N)=O)NC(=O)[C@@H]2CCC(=O)N2)cc1`, the Retention time in [2] came to 15 min.

As to `COc1cccc(NC(=O)[C@@H]2CCCN2C(=O)[C@H](CC(N)=O)NC(=O)[C@@H]2CCC(=O)N2)c1`, the Retention time in assay [2] amounted to 15.9 min.

Turning to `COc1ccccc1NC(=O)[C@@H]1CCCN1C(=O)[C@H](CC(N)=O)NC(=O)[C@@H]1CCC(=O)N1`, in assay [2], the Retention time was 15.4 min.

As to `Cc1cc(=O)oc2cc(NC(=O)[C@@H]3CCCN3C(=O)[C@H](Cc3cnc[nH]3)NC(=O)[C@@H]3CCC(=O)N3)ccc12`, the Vmax/Km in [3] was found to be 0.04 U/mg/µM.

For `NC(=O)[C@@H]1CCCN1C(=O)[C@H](Cc1c[nH]cn1)NC(=O)[C@@H]1CCC(=O)N1`, in assay [4], the Activity came out at 2.54 U/mg. Also, the Vmax/Km in assay [3] was found to be 0.08 U/mg/µM.

On to `O=C1CC[C@@H](C(=O)N[C@@H](Cc2cnc[nH]2)C(=O)N2CCC[C@H]2C(=O)O)N1`, for which the Activity in assay [4] was determined as 3.38 U/mg. Further, in [3], the Vmax/Km turned out to be 0.01 U/mg/µM.

Turning to `C[C@H](NC(=O)[C@@H]1CCC(=O)N1)C(=O)N1CCC[C@H]1C(N)=O` ([pGlu]-Ala-Pro-NH2), the Activity in [4] stood at 0.02 U/mg.

As for `N=C(N)NCCC[C@H](NC(=O)[C@@H]1CCC(=O)N1)C(=O)N1CCC[C@H]1C(N)=O` ([pGlu]-Arg-Pro-NH2), the Activity in assay [4] was 0.41 U/mg.

Broadly, the inhibition is the change of the read-out against control, counted positive when it falls. In the case of `NC(=O)C[C@H](NC(=O)[C@@H]1CCC(=O)N1)C(=O)N1CCC[C@H]1C(N)=O` ([pGlu]-Asn-Pro-NH2), in assay [5], the inhibition came to 97%. The inhibition result (with Rattus norvegicus [6]; in assay [8]; in assay [9]; with Rattus norvegicus [10]) was “Active” each time. This molecule also had a pKi in assay [7] of 5.15.

For `NC(=O)C[C@H](NC(=O)[C@@H]1CCC(=O)N1)C(=O)N1CCC[C@H]1C(=O)NCc1ccccc1` ([pGlu]-Asn-Pro-NHBn), the Retention time in assay [2] was determined as 14.3 min.

Turning to `NC(=O)[C@@H]1CCCN1C(=O)[C@H](CC(=O)O)NC(=O)[C@@H]1CCC(=O)N1` ([pGlu]-Asp-Pro-NH2), the inhibition in assay [5] was determined as 1%.

Take `NC(=O)CC[C@H](NC(=O)[C@@H]1CCC(=O)N1)C(=O)N1CCC[C@H]1C(N)=O` ([pGlu]-Gln-Pro-NH2): the inhibition entry in assay [11] is “Active”. Further, in assay [5], the inhibition is 83%.

`NC(=O)[C@@H]1CCCN1C(=O)[C@H](CCC(=O)O)NC(=O)[C@@H]1CCC(=O)N1` ([pGlu]-Glu-Pro-NH2): the inhibition in assay [5] was 17%.

For the molecule `NC(=O)[C@@H]1CCCN1C(=O)CNC(=O)[C@@H]1CCC(=O)N1` ([pGlu]-Gly-Pro-NH2), the inhibition in assay [5] is 8%.

For `CC[C@H](C)[C@H](NC(=O)[C@@H]1CCC(=O)N1)C(=O)N1CCC[C@H]1C(N)=O` ([pGlu]-Ile-Pro-NH2), the Activity in [4] was 0.06 U/mg.
